Source: paper PMC9234589 (Heliyon, 2022)
Where “and” joins values, the source holds several entries; their conditions need not be identical. Equal entries are not always repeated. Blank lines part the entries; values can stand above or below the molecule they belong to.

Assays:
[1] = tested on: Drosophila melanogaster high bioactivation cross (HB), marker-heterozygous flies (mwh +/+ flr3); experiment: Drosophila wing spot test; format: in vivo
[2] = tested on: A549 human adenocarcinoma cells; conditions: cited from earlier work
[3] = tested on: Drosophila melanogaster standard cross (ST), marker-heterozygous flies (mwh +/+ flr3); experiment: Drosophila wing spot test; format: in vivo
human lymphocytes = conditions: cited from earlier work
C. elegans = conditions: NIC 100 μM; cited from earlier work
[4] = HB cross, URE 20 mM positive control, vs water
[5] = ST cross, URE 20 mM positive control, vs water
[6] = NIC 0.456 mM + RES 0.0004 mM vs NIC 0.456 mM
[7] = NIC 0.456 mM + RES 0.0004 mM vs RES 0.0004 mM
[8] = NIC 0.456 mM + RES 0.011 mM vs RES 0.011 mM
[9] = NIC 11.4 mM + RES 0.0004 mM vs RES 0.0004 mM
[10] = NIC […] + RES 0.0004 mM vs NIC […]
[11] = NIC […] + RES 0.0004 mM vs RES 0.0004 mM

SMILES: Oc1ccc(/C=C/c2cc(O)cc(O)c2)cc1 [RES, Resveratrol]
Clone formation observed ([1]; RES 0.0004 mM): 1.20 per 105 per cell Cells division
Large single spots (>2 cells) per fly (number of spots) ([1]; RES 0.0004 mM): 0.06 (005)
Mean mwh clone size class ([1]; RES 0.0004 mM): 1.84
Small single spots (1-2 cells) per fly (number of spots) ([1]; RES 0.0004 mM): 0.52 (045)
Total spots per fly (number of spots) ([1]; RES 0.0004 mM): 0.59 (051)
Twin spots per fly (number of spots) ([1]; RES 0.0004 mM): 0.01 (001)
mwh clones ([1]; RES 0.0004 mM): 51
Mean mwh clone size class ([1]; RES 0.011 mM): 1.43 and 1.56
Twin spots per fly (number of spots) ([1]; RES 0.011 mM): 0.02 (001)
Effect on cell survival (in words) ([2]; RES 0.02 mM): inhibited cell survival
Effect on cell proliferation and viability (in words) ([2]; RES 0.001 and 0.005 mM): promoted cell proliferation and viability
Clone formation observed ([3]; RES 0.0004 mM): 1.15 per 105 per cell Cells division
Large single spots (>2 cells) per fly (number of spots) ([3]; RES 0.0004 mM): 0.07 (004)
Mean mwh clone size class ([3]; RES 0.0004 mM): 1.64
Small single spots (1-2 cells) per fly (number of spots) ([3]; RES 0.0004 mM): 0.53 (031)
Total spots per fly (number of spots) ([3]; RES 0.0004 mM): 0.60 (035)
Twin spots per fly (number of spots) ([3]; RES 0.0004 mM): 0.00 (0)
mwh clones ([3]; RES 0.0004 mM): 33
Clone formation observed ([3]; RES 0.011 mM): 1.15 per 105 per cell Cells division and 1.35 per 105 per cell Cells division
Large single spots (>2 cells) per fly (number of spots) ([3]; RES 0.011 mM): 0.03 (002) and 0.05 (005)
Mean mwh clone size class ([3]; RES 0.011 mM): 1.84 and 1.58
Small single spots (1-2 cells) per fly (number of spots) ([3]; RES 0.011 mM): 0.47 (027) and 0.58 (057)
Total spots per fly (number of spots) ([3]; RES 0.011 mM): 0.57 (033) and 0.67 (066)
Twin spots per fly (number of spots) ([3]; RES 0.011 mM): 0.07 (004) and 0.04 (004)

Clone formation per 105 cells per cell division, observed ([1]; HB cross, URE 20 mM): 6.35
Mean mvh clone size class ([1]; HB cross, URE 20 mM): 1.82
mwh clones ([1]; HB cross, URE 20 mM): 71
Small single spots (1-2 cells), Spots per Fly (Number of Spots) [1, 4]: 2.52 (58) Spots per Fly
Small single spots (1-2 cells), Statistical Diagnosis [1, 4]: +
Total spots statistical diagnosis [1, 4]: +
Total spots, Spots per Fly (Number of Spots) [1, 4]: 3.09 (71) Spots per Fly
Twin spots statistical diagnosis [1, 4]: +
Twin spots, Spots per Fly (Number of Spots) [1, 4]: 0.17 (4) Spots per Fly
large single spots (>2 cells), Spots per Fly (Number of Spots) [1, 4]: 0.39 (09) Spots per Fly
large single spots (>2 cells), Statistical Diagnosis [1, 4]: +
Clone formation per 105 cells per cell division, control connected ([1]; HB cross, URE 20 mM, control water): 4.85
Clone formation per 105 cells per cell division, observed ([3]; ST cross, URE 20 mM): 2.80
Mean mvh clone size class ([3]; ST cross, URE 20 mM): 1.45
mwh clones ([3]; ST cross, URE 20 mM): 38
Small single spots (1-2 cells), Spots per Fly (Number of Spots) [3, 5]: 1.21 (34) Spots per Fly
Small single spots (1-2 cells), Statistical Diagnosis [3, 5]: +
Total spots statistical diagnosis [3, 5]: +
Total spots, Spots per Fly (Number of Spots) [3, 5]: 1.36 (38) Spots per Fly
Twin spots statistical diagnosis [3, 5]: -
Twin spots, Spots per Fly (Number of Spots) [3, 5]: 0.04 (1) Spots per Fly
large single spots (>2 cells), Spots per Fly (Number of Spots) [3, 5]: 0.11 (03) Spots per Fly
large single spots (>2 cells), Statistical Diagnosis [3, 5]: -
Clone formation per 105 cells per cell division, control connected ([3]; ST cross, URE 20 mM, control water): 1.65
SMILES: CCOC(N)=O [URE, ethyl carbamate]

SMILES: CN1CCC[C@H]1c1cccnc1 [NIC, nicotine]
Concentrations at which genotoxic in in vitro assays (human lymphocytes): > 500 nM
Lethality ([1]; HB cross, NIC 11.4 mM): lethal
Clone formation observed ([1]; NIC 0.456 mM): 0.95 per 105 per cell Cells division
Large single spots (>2 cells) per fly (number of spots) ([1]; NIC 0.456 mM): 0.07 (007)
Mean mwh clone size class ([1]; NIC 0.456 mM): 1.64
Small single spots (1-2 cells) per fly (number of spots) ([1]; NIC 0.456 mM): 0.38 (038)
Total spots per fly (number of spots) ([1]; NIC 0.456 mM): 0.48(048)
Twin spots per fly (number of spots) ([1]; NIC 0.456 mM): 0.03 (003)
mwh clones ([1]; NIC 0.456 mM): 47
Clone formation observed ([1]; NIC 0.456 mM + RES 0.0004 mM): 0.95 per 105 per cell Cells division and 0.90 per 105 per cell Cells division
Large single spots (>2 cells) per fly (number of spots) ([1]; NIC 0.456 mM + RES 0.0004 mM): 0.11 (007)
Mean mwh clone size class ([1]; NIC 0.456 mM + RES 0.0004 mM): 2.21
Small single spots (1-2 cells) per fly (number of spots) ([1]; NIC 0.456 mM + RES 0.0004 mM): 0.36 (023)
Total spots per fly (number of spots) ([1]; NIC 0.456 mM + RES 0.0004 mM): 0.47 (030)
Twin spots per fly (number of spots) ([1]; NIC 0.456 mM + RES 0.0004 mM): 0.00 (000)
mwh clones ([1]; NIC 0.456 mM + RES 0.0004 mM): 29
Clone formation control connected [1, 6]: -0.05 per 105 per cell Cells division
Large single spots statistical diagnosis [1, 6]: -
Small single spots statistical diagnosis [1, 6]: -
Total spots statistical diagnosis [1, 6]: -
Twin spots statistical diagnosis [1, 6]: -
Clone formation control connected [1, 7]: -0.25 per 105 per cell Cells division
Large single spots statistical diagnosis [1, 7]: -
Small single spots statistical diagnosis [1, 7]: -
Total spots statistical diagnosis [1, 7]: -
Twin spots statistical diagnosis [1, 7]: -
Large single spots (>2 cells) per fly (number of spots) ([1]; NIC 0.456 mM + RES 0.011 mM): 0.10 (006)
Small single spots (1-2 cells) per fly (number of spots) ([1]; NIC 0.456 mM + RES 0.011 mM): 0.37 (022)
Clone formation control connected [1, 8]: 0.20 per 105 per cell Cells division
Small single spots statistical diagnosis [1, 8]: -
Clone formation observed ([1]; NIC 11.4 mM + RES 0.0004 mM): 0.80 per 105 per cell Cells division
Large single spots (>2 cells) per fly (number of spots) ([1]; NIC 11.4 mM + RES 0.0004 mM): 0.00 (000)
Mean mwh clone size class ([1]; NIC 11.4 mM + RES 0.0004 mM): 1.25
Small single spots (1-2 cells) per fly (number of spots) ([1]; NIC 11.4 mM + RES 0.0004 mM): 0.40 (004)
Total spots per fly (number of spots) ([1]; NIC 11.4 mM + RES 0.0004 mM): 0.40 (004)
Twin spots per fly (number of spots) ([1]; NIC 11.4 mM + RES 0.0004 mM): 0.00 (000)
mwh clones ([1]; NIC 11.4 mM + RES 0.0004 mM): 04
Clone formation control connected [1, 9]: -0.40 per 105 per cell Cells division
Large single spots statistical diagnosis [1, 9]: -
Small single spots statistical diagnosis [1, 9]: -
Total spots statistical diagnosis [1, 9]: -
Twin spots statistical diagnosis [1, 9]: -
Large single spots statistical diagnosis [1, 10]: -
Twin spots statistical diagnosis [1, 10]: -
Large single spots statistical diagnosis [1, 11]: -
Small single spots statistical diagnosis [1, 11]: -
Total spots statistical diagnosis [1, 11]: -
Twin spots statistical diagnosis [1, 11]: -
Mean mwh clone size class ([3]; NIC 0.050 mM + RES 0.011 mM): 1.34
Number of surviving flies ([3]; ST cross, NIC 11.4 mM): decreased
Genotoxicity (in words) ([3]; ST cross, NIC […] and 11.4 mM, increased small and total spots): genotoxic
Genotoxicity, comet assay (in words) (C. elegans): genotoxic
